Measurements reported in PMC6556873, “Rapid Covalent-Probe Discovery by Electrophile-Fragment Screening” (Journal of the American Chemical Society, 2019).
Read-outs that look alike come from different tables or passages of the source.

Legend:
K-Ras^G12C = target: T1, K-Ras^G12C (Homo sapiens, UniProt P01116, G12C, species not given); assay: intact protein LC/MS labeling; assay type: binding; settings: covalent; 24 h, 4 °C, 2 μM protein, pools of five, pH 8.0
T1 construct: gene KRAS; residues 1-169, recombinant, construct 19245 Da

BSA = target: T2, BSA (Bos taurus, UniProt P02769); set-up: Intact protein LC/MS covalent labelling, fragments in pools of five, 200 uM each, 4 °C; settings: 24 h, 4 °C, pool of five; 200 µM; covalent
T2 construct: gene ALB

NNMT (hNNMT) = target: T3, NNMT (hNNMT) (Homo sapiens, UniProt P40261); set-up: Intact protein LC/MS covalent labelling, fragments in pools of five, 200 uM each, 4 °C; settings: 24 h, 4 °C, pool of five; 200 µM; covalent
T3 construct: wild type, N-terminal His6 tag kept (no cleavage described), E. coli, construct 31248 Da
T3 sequence (P40261 1-264): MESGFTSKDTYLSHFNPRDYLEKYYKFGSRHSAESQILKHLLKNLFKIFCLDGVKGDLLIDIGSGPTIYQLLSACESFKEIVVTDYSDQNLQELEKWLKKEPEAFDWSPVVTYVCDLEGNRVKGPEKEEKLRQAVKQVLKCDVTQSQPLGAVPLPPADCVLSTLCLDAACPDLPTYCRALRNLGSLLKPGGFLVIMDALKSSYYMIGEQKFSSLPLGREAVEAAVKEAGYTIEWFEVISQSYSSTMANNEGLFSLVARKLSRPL

NUDT7 [1] = target: T4, NUDT7 (Homo sapiens, UniProt P0C024); set-up: Intact protein LC/MS covalent labelling, fragments in pools of five, 200 uM each, 4 °C; settings: 24 h, 4 °C, pool of five; 200 µM; covalent
T4 construct: residues 14-235, E. coli, pNIC28-Bsa4, N-terminal His6 tag removed by TEV, construct 26672 Da

OTUB2 (OTUB2A) = target: T5, OTUB2 (OTUB2A) (Homo sapiens, UniProt Q96DC9); set-up: Intact protein LC/MS covalent labelling, fragments in pools of five, 200 uM each, 4 °C; settings: 24 h, 4 °C, pool of five; 200 µM; covalent
T5 construct: full length residues 1-234, E. coli BL21(DE3)-R3, His tag removed by TEV, construct 27312 Da
T5 sequence (Q96DC9 1-234): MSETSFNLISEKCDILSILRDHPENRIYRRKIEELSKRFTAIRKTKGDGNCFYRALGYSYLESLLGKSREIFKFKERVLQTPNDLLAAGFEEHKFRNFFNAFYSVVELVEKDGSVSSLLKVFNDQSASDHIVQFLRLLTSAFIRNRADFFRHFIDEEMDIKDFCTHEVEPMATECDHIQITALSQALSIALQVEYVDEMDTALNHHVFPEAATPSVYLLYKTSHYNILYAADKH

PCAF = target: T6, PCAF (Homo sapiens, UniProt Q92831); set-up: Intact protein LC/MS covalent labelling, fragments in pools of five, 200 uM each, 4 °C; settings: 24 h, 4 °C, pool of five; 200 µM; covalent
T6 construct: gene KAT2B

in vitro [2] = assay: in vitro; set-up: species or system CCD841, HEK293; settings: human, hb2 cells, read-out: HB-2 Cells Viability (%)
in vitro [3] = assay: in vitro; set-up: species or system HB2, HEK293; settings: human, ccd841 cells
in vitro [4] = assay: in vitro; set-up: species or system HB2, CCD841; settings: human, hek293 cells
NUDT7 [5] = target: T4, NUDT7; assay: RapidFire MS acetyl-CoA hydrolysis, kobs vs [inhibitor]; assay type: biochemical
NUDT7 [6] = target: T4, NUDT7; assay: RapidFire MS acetyl-CoA hydrolysis assay; assay type: biochemical
NUDT7 [7] = target: T4, NUDT7; assay: RapidFire MS acetyl-CoA hydrolysis, kobs vs [inhibitor]; assay type: biochemical; settings: covalent, inactivation constant KI from kinact/KI fit, 5 mM MgCl2, pH 7.5

T4 sequence (P0C024 14-235): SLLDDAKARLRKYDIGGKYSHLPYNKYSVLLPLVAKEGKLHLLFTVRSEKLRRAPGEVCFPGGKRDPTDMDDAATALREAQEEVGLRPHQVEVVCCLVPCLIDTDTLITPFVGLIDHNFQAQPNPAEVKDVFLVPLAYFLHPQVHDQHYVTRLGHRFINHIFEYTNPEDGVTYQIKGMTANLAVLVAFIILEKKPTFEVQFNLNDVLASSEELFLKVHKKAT
T1 sequence (P01116 1-169 G12C): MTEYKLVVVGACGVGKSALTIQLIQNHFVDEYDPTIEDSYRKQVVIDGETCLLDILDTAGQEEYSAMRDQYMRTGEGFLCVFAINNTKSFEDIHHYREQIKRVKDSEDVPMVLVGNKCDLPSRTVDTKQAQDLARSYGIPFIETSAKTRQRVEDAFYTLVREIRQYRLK
T2 sequence (P02769 whole entry, the tested form may be a part): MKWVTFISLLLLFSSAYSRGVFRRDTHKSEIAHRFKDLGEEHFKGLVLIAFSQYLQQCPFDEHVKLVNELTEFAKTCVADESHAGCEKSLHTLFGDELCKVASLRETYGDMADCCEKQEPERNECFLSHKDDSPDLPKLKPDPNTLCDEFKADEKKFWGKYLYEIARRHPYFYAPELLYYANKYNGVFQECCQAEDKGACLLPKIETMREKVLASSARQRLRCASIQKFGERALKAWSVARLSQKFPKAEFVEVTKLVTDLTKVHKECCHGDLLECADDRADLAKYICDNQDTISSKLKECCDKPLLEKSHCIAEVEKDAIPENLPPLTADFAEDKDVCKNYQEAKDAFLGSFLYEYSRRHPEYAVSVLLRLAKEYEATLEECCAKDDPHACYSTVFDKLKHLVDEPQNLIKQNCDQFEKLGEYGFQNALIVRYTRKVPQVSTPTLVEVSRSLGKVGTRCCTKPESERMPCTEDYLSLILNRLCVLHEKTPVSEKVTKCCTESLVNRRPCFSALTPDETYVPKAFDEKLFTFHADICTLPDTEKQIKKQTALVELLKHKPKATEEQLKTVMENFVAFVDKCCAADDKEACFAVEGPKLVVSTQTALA
T6 sequence (Q92831 whole entry, the tested form may be a part): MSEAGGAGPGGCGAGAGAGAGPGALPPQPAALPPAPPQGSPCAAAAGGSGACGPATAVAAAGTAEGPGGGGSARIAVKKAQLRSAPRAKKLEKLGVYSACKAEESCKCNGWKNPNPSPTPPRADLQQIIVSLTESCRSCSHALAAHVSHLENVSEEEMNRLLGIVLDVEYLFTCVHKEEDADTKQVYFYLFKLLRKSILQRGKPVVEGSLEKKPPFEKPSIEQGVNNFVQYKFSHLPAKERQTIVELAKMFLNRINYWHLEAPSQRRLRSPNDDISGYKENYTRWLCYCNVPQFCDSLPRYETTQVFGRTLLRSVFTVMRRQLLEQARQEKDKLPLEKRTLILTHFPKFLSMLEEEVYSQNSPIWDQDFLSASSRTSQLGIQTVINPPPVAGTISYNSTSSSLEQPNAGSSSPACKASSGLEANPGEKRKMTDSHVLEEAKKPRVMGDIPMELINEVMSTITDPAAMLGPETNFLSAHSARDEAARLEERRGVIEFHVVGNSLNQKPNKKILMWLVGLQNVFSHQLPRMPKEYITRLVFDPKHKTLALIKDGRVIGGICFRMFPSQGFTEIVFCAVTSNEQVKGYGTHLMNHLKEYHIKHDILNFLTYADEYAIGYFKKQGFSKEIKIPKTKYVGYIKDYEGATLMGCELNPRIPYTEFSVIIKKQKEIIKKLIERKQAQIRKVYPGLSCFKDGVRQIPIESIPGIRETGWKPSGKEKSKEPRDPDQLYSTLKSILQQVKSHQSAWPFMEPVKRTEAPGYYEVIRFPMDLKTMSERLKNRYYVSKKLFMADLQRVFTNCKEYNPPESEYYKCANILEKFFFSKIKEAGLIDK

% labeling at 200 μM (K-Ras^G12C) | BSA (BSA) | NNMT (NNMT (hNNMT)) | NUDT7 (NUDT7 [1]) | OTUB2 (OTUB2 (OTUB2A)) | PCAF (PCAF) | kinact/KI (NUDT7 [5]) | IC50 (NUDT7 [6]) | KI (inactivation) (NUDT7 [7]) | SMILES | viability at 48 h, 10 µM (in vitro [2]) | viability at 48 h, 10 µM (in vitro [3]) | viability at 48 h, 10 µM (in vitro [4])
63% | 0 | 0.14 | 0 | 0.17 | 0 |  |  |  | Cl.O=C(CCl)N1CCN(Cc2ccc(Cl)cc2)CC1 [PCM-0102818] | 8.2% | 31.6% | 7.8%
 |  |  |  |  |  | 757 M⁻¹ s⁻¹ | 1.1 µM | 13.2 µM | O=C(Cc1cccc(C2CCCN2C(=O)CCl)c1)Nc1cccc(Cl)c1 (racemic) [NUDT7-COV-1] |  |  | 
